Drawing on patent US8946426B2, “Substituted bicyclic heterocyclic compounds as gamma secretase modulators” (Janssen Pharmaceuticals, Inc., priority 2009, dated 2015), this text covers IC50 for 43 molecules.

The test system of assay [1] is Aβ42. The assay is described as follows: Method 1: Aβ42 sandwich ELISA in supernatant of SKNBE2 cells carrying APP 695-wild type (Tables 7a, 7b). The assay is classed as cell-based. The note with it: Table 7b, averaged IC50, non-linear regression of percentage of control vs log concentration, 4-parameter equation. As for the experimental part:
(§1) Screening was carried out using SKNBE2 cells carrying the APP 695-wild type, grown in Dulbecco's Modified Eagle's Medium/Nutrient mixture F-12 (DMEM/NUT-mix F-12) (HAM) provided by Gibco (cat no. 31330-38) containing 5% Serum/Fe supplemented with 1% non-essential amino acids. Cells were grown to near confluency.
(§2) The screening was performed using the assay as described in Citron et al (1997) Nature Medicine 3: 67. Briefly, cells were plated in a 96-well plate at about 10^5 cells/ml one day prior to addition of compounds. Compounds were added to the cells in Ultraculture (Lonza, BE12-725F) supplemented with 1% glutamine (Invitrogen, 25030-024) for 18 Hours. The media were assayed by two sandwich ELISAs, for Aβ42 and Aβtotal. Toxicity of the compounds was assayed by WST-1 cell proliferation reagent (Roche, 1 644 807) according to the manufacturer's protocol.
To quantify the amount of Aβ42 in the cell supernatant, commercially available Enzyme-Linked-Immunosorbent-Assay (ELISA) kits were used (Innotest® β-Amyloid(1-42), Innogenetics N.V., Ghent, Belgium). The Aβ42 ELISA was performed essentially according to the manufacturer's protocol. Briefly, the standards (dilutions of synthetic Aβ1-42) were prepared in polypropylene Eppendorf with final concentrations of 8000 down to 3.9 pg/ml (½ dilution step). Samples, standards and blanks (100 μl) were added to the anti-Aβ42-coated plate supplied with the kit (the capture antibody selectively recognizes the C-terminal end of the antigen). The plate was allowed to incubate 3 H at 25° C. in order to allow formation of the antibody-amyloid complex. Following this incubation and subsequent wash steps a selective anti-Aβ-antibody conjugate (biotinylated 3D6) was added and incubated for a minimum of 1 Hour in order to allow formation of the antibody-Amyloid-antibody-complex. After incubation and appropriate wash steps, a Streptavidine-Peroxidase-Conjugate was added, followed 30 minutes later by an addition of 3,3′,5,5′-tetramethylbenzidine (TMB)/peroxide mixture, resulting in the conversion of the substrate into a coloured product. This reaction was stopped by the addition of sulfuric acid (0.9 N) and the colour intensity was measured by means of photometry with an ELISA-reader with a 450 nm filter.
(§3) To obtain the values reported in Table 7a, the sigmoidal dose response curves were analysed by computerised curve-fitting, with percent of inhibition plotted against compound concentration. A 4-parameter equation (model 205) in XLfit was used to determine the IC50. The top and the bottom of the curve were fixed to 100 and 0, respectively, and the hill slope was fixed to 1. The IC50 represents the concentration of a compound that is required for inhibiting a biological effect by 50% (Here, it is the concentration where Aβ peptide level is reduced by 50%).
(§4) To obtain the values reported in Table 7b, the data were calculated as percentage of the maximum amount of amyloid Beta 42 measured in the absence of the test compound. The sigmoidal dose response curves were analyzed using non-linear regression analysis with percentage of the control plotted against the log concentration of the compound. A 4-parameter equation was used to determine the IC50. The values reported in Table 7b are averaged IC50 values.
A general note: In an ELISA, binding on a coated surface is turned into a signal by an enzyme label.

Assay [2] has as its system Aβtotal. Nature of the assay: Method 1: Aβtotal sandwich ELISA in supernatant of SKNBE2 cells carrying APP 695-wild type (Tables 7a, 7b). Particulars: Table 7b, averaged IC50, non-linear regression of percentage of control vs log concentration, 4-parameter equation. The assay is classed as cell-based. The method, then:
as §1, §2
To quantify the amount of Aβtotal in the cell supernatant, samples and standards were added to a 6E10-coated plate. The plate was allowed to incubate overnight at 4° C. in order to allow formation of the antibody-amyloid complex. Following this incubation and subsequent wash steps a selective anti-Aβ-antibody conjugate (biotinylated 4G8) was added and incubated for a minimum of 1 Hour in order to allow formation of the antibody-Amyloid-antibody-complex. After incubation and appropriate wash steps, a Streptavidine-Peroxidase-Conjugate was added, followed 30 minutes later by an addition of Quanta Blu fluorogenic peroxidase substrate according to the manufacturer's instructions (Pierce Corp., Rockford, Ill.).
as §3, §4

The structures appear in SMILES notation. pIC50: −log10 of the molar value.

As usually defined, the pIC50 is the negative decadic logarithm of the IC50, by convention in mol/L. Read a low pIC50 as a large IC50. `CCn1c(CC2CC2)nc2c(Nc3ccc(-c4cnc(C)o4)c(OC)c3)cccc21` [Compound 64]: the pIC50 in assay [1] was 7.17; in assay [2], less than 5.52.
In the case of `Cn1cc(-c2ccc(Nc3cccc4c3nc(-c3ccc(F)cc3)n4C)cc2)cn1` [Compound 67], the pIC50 is 7.19 in assay [1] and less than 5.52 in assay [2].
Regarding `Cn1cc(-c2ccc(Nc3cccc4c3nc(-c3ccc(F)cc3)n4C)cn2)cn1` [Compound 70], the pIC50 in assay [1] was 7.12; in assay [2] it was less than 5.52.
Consider `Cn1nccc1-c1ccc(Nc2cccc3c2nc(-c2ccc(F)cc2)n3C)nc1` [Compound 71], for which the pIC50 in assay [1] was 5.71; in assay [2] it was less than 5.52.
`Cn1nccc1-c1ccc(Nc2cccc3c2nc(-c2ccc(F)cc2)n3C)cc1` [Compound 72]: the pIC50 in assay [1] was 6.02; in assay [2], less than 5.52.
As for `COc1cc(Nc2cccc3c2nc(-c2ccc(F)cc2)n3C)ccc1-c1ncnn1C` [Compound 75], the results for the pIC50 in assay [1] and in assay [2] were 5.94 and less than 5.52, respectively.
Regarding `Cc1ncc(-c2ccc(Nc3cccc4c3nc(-c3ccc(F)cc3)n4C)cn2)s1` [Compound 76], the pIC50 in assay [1] is 6.74; in assay [2], less than 5.52.
Turning to `COc1cc(Nc2cccc3c2nc(-c2ccc(F)cc2)n3C(C)C)ccc1-c1cnc(C)s1` [Compound 77], the negative logarithm of the IC50 (pIC50) is 7.37 in assay [1] and less than 5.52 in assay [2].
Take `COc1cc(Nc2nccc3c2nc(-c2ccc(F)cc2F)n3C)ccc1-c1cnc(C)s1` [Compound 78]: the pIC50 in assay [1] was 6.56; in assay [2] it was less than 5.52.
For `Cc1nc(C)c(-c2ccc(Nc3cccc4c3nc(-c3ccc(F)cc3)n4C)cc2)o1` [Compound 83], the pIC50 is 7.23 in assay [1] and less than 5.52 in assay [2].
For `Cc1ncc(-c2ccc(Nc3cc(F)cc4c3nc(N3CCCC3)n4C)cc2)o1` [Compound 90], the negative logarithm of the IC50 (pIC50) is 5.96 in assay [1] and less than 5.52 in assay [2].
Regarding `COc1cc(Nc2nccc3c2nc(CCC(F)(F)F)n3C)ccc1-c1cnc(C)o1` [Compound 91], the figures for the pIC50 in assay [1] and in assay [2] were 5.84 and 4.18, respectively.
For `COc1cc(Nc2nc(C)cc3c2nc(C2CCOCC2)n3C)ccc1-c1cnc(C)o1` [Compound 92], the negative logarithm of the IC50 (pIC50) in assay [1] was 5.59; in assay [2], less than 5.52.
For the molecule `COc1cc(Nc2nc(C3CC3)cc3c2nc(-c2ccc(F)cc2)n3C)ccc1-c1cnc(C)o1` [Compound 94], the values for the pIC50 in assay [1] and in assay [2] were 7.08 and less than 5.52, respectively.
On the same counts, the results for `COc1cccc(-c2nc3c(Nc4ccc(-c5cnc(C)o5)cc4)nc(C)cc3n2C)c1` [Compound 98] are 7.15 and less than 5.52.
Turning to `Cc1ncc(-c2ccc(Nc3cc(C(F)(F)F)cc4c3nc(C3CCOCC3)n4C)cc2)o1` [Compound 100], the pIC50 was 5.65 in assay [1] and 4.60 in assay [2].
On the same counts, the results for `COc1cc(Nc2nc(C)cc3c2nc(-c2cccc(OC(C)C)c2)n3C)ccc1-c1cnc(C)o1` [Compound 102] are 7.62 and less than 5.52.
Regarding `COc1cccc(-c2nc3c(Nc4ccc(-c5cnc(C)o5)nc4)cc(C#N)cc3n2C)c1` [Compound 103], the values for the pIC50 in assay [1] and in assay [2] were 7.44 and less than 5.52, respectively.
For the molecule `COc1cc(Nc2cc(F)cc3c2nc(N(C)CC(C)C)n3C)ccc1-c1cnc(C)o1` [Compound 108], the pIC50 in assay [1] was 6.88; in assay [2], less than 5.00.
For `COc1cccc(-c2nc3c(Nc4ccc(-c5cnc(C)o5)c(F)c4)nccc3n2C)c1` [Compound 109], in that order: 6.84 and 5.55.
For the molecule `Cc1ncoc1-c1ccc(Nc2cc(C#N)cc3c2nc(-c2ccc(F)cc2)n3C)cn1` [Compound 110], the pIC50 is 7.08 in assay [1] and less than 5.52 in assay [2].
On the same counts, the results for `Cc1ncoc1-c1ccc(Nc2cccc3c2nc(-c2cccc(Cl)c2)n3C(C)C)cn1` [Compound 112] are 7.55 and less than 6.00.
`Cc1ncoc1-c1ccc(Nc2cc(F)cc3c2nc(-c2ccccc2Cl)n3C)cn1` [Compound 114]: the results for the pIC50 in assay [1] and in assay [2] were 7.14 and less than 5.52, respectively.
With `Cc1ncoc1-c1ccc(Nc2nccc3c2nc(-c2ccccc2Cl)n3C)cn1` [Compound 117], the results for the pIC50 in assay [1] and in assay [2] were 6.14 and less than 5.00, respectively.
For `COc1cc(Nc2cc(CN)cc3c2nc(-c2ccc(F)cc2)n3C)ccc1-c1ocnc1C` [Compound 120], the pIC50 in assay [1] (Homo sapiens, SKNBE2) is 6.49; in assay [2] (Homo sapiens, SKNBE2), less than 5.52.
As for `COc1cccc(-c2nc3c(Nc4ccc(-c5ocnc5C)c(OC)c4)nc(C)cc3n2C)c1` [Compound 121], the pIC50 is 7.70 in assay [1] and less than 5.52 in assay [2].
On the same counts, the results for `COc1cccc(-c2nc3c(Nc4ccc(-c5ocnc5C)c(OC)c4)cc(C#N)cc3n2C)c1` [Compound 122] are 7.42 and less than 5.52.
As for `COc1cc(Nc2cc(C#N)cc3c2nc(-c2ccc(F)cc2)n3C)ccc1-c1ocnc1C` [Compound 123], the pIC50 is 7.59 in assay [1] and less than 6.00 in assay [2].
As for `Cc1ncoc1-c1ccc(Nc2cccc3c2nc(-c2ccc(F)cc2)n3C)cc1` [Compound 124], the pIC50 in assay [1] was 7.29; in assay [2] it was less than 5.52.
`COc1cc(Nc2cc(C(F)(F)F)cn3c(C)c(C)nc23)ccc1-c1ocnc1C` [Compound 142]: the pIC50 in assay [1] was 6.33; in assay [2], less than 5.00.
For the molecule `COc1cc(Nc2cc(C(F)(F)F)cn3cc(C(=O)N(C)C)nc23)ccc1-c1ocnc1C` [Compound 143], the pIC50 is 5.01 in assay [1] and less than 4.52 in assay [2].
Regarding `COc1cc(Nc2cccn3c(C)c(C)nc23)ccc1-c1ocnc1C` [Compound 144], the figures for the pIC50 in assay [1] and in assay [2] were 6.33 and 4.86, respectively.
With `COc1cc(Nc2cc(C#N)cn3cc(-c4ccc(F)cc4C)nc23)ccc1-c1ocnc1C` [Compound 146], the pIC50 in assay [1] was 6.45; in assay [2], less than 4.52.
`COc1cc(Nc2cc(C)cn3cc(-c4ccc(F)cc4C)nc23)ccc1-c1ocnc1C` [Compound 149]: the pIC50 in assay [1] is 7.33; in assay [2], less than 5.52.
For `COc1cc(Nc2cc(CN)cn3cc(-c4ccc(F)cc4C)nc23)ccc1-c1ocnc1C` [Compound 150], the pIC50 is 6.36 in assay [1] and 5.09 in assay [2].
For `COc1cccc(-c2nc3c(Nc4ccc(-c5ocnc5C)cc4)cccn3c2C)c1` [Compound 152], in that order: 7.64 and less than 5.52.
As for `COc1cc(Nc2nc(C3CC3)cn3cc(C)nc23)ccc1-c1ocnc1C` [Compound 153], the values for the pIC50 in assay [1] and in assay [2] were 5.88 and less than 5.52, respectively.
On the same counts, the results for `Cc1ncoc1-c1ccc(Nc2cccn3cc(C4CCOCC4)nc23)cn1` [Compound 154] are 5.69 and less than 5.52.
With `COc1cc(Nc2cccn3cc(C4CCOCC4)nc23)ccc1-c1ocnc1C` [Compound 155], the values for the negative-log IC50 (pIC50) in assay [1] and in assay [2] were 6.41 and 4.83, respectively.
Regarding `Cc1ncoc1-c1ccc(Nc2cccn3cc(C4CC4)nc23)cn1` [Compound 160], the pIC50 is 6.86 in assay [1] and less than 5.52 in assay [2].
As to `Cc1ncc(-c2ccc(Nc3cccn4cc(C5CC5)nc34)cc2)o1` [Compound 166], the pIC50 was 6.13 in assay [1] and less than 5.52 in assay [2].
For `COCCCc1c(-c2ccccc2C(F)(F)F)nc2c(Nc3ccc(-c4cnc(C)o4)c(OC)c3)cccn12` [Compound 169], the pIC50 in assay [1] (Homo sapiens, SKNBE2) was 7.35; in assay [2] (Homo sapiens, SKNBE2), less than 5.52.
Take `Cc1ncc(-c2ccc(Nc3cc(F)cn4cc(-c5ccc(F)cc5C)nc34)cc2)o1` [Compound 176]: the pIC50 is 7.39 in assay [1] and less than 5.52 in assay [2].
